Experimental data as given in paper PMC6176987, “Correction of cognitive deficits in mouse models of Down syndrome by a pharmacological inhibitor of DYRK1A” (Disease Models & Mechanisms, 2018).

Assays:
Tg(Dyrk1a) mice = assay: Novel object recognition (NOR) test in Tg(Dyrk1a) mice; type: in vivo, mouse; conditions: for Recovery in NOR test: 20 mg/kg daily i.p., 24 h retention delay
[1] = L41 levels in brain nuclear and cytoplasmic fractions; conditions: mouse, in vivo
Method: Thus, DYRK1A overexpression in the transgenic animals' brains appears to be limited to the cytoplasmic fraction, corresponding to the subcellular distribution of overexpressed DYRK1A (Fig. 7A,B). Accordingly, more L41 is detected in the cytoplasmic fraction from transgenic animals compared with their control littermates.
Nuclear, cytosolic and synaptosomal subcellular fractionation of brain tissue was performed with the Syn-PER™ and ProteoExtract® Tissue Dissociation Buffer Kit and Subcellular Proteome Extraction Kit following the instructions of the manufacturer. Fractions were analysed by SDS-PAGE and WB with specific antibodies.

Compound: O=C1NC(Nc2ccccc2)=N/C1=C\c1ccc2c(c1)OCO2 [L41]
- Recovery in NOR test (Tg(Dyrk1a) mice; 5 days): only marginally
- Recovery in NOR test (Tg(Dyrk1a) mice; 12 days): consistently
- Recovery in NOR test (Tg(Dyrk1a) mice; 19 days): fully observed
- Persistence of NOR rescue (Tg(Dyrk1a) mice; 24 h after the last day of the 19 day treatment): rescuing effect was detectable
- Persistence of NOR rescue (Tg(Dyrk1a) mice; 48 h after the last day of the 19 day treatment): no rescue
- L41 level in brain cytoplasmic fraction, Tg(Dyrk1a) vs wt [1]: significantly increased
- L41 levels in brain nuclear fractions, Tg(Dyrk1a) vs wt [1]: identical L41 levels
